PubChem BioAssay AID330 (DTP/NCI, 2004)
Toxic doses and inconclusive results are not listed. How the source made its calls: active means survival T/C of 150% or more; inactive means T/C below 125% in these data.

Test system: P388 leukemia ip, CD2F1 mice, survival T/C
Experiment: NCI In Vivo Anticancer Drug Screen. Data for tumor model P388 Leukemia (intraperitoneal) in CD2F1 (CDF1) mice
Details: endpoint: median survival time, higher = longer survival
Procedure, shortened: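 Mice carrying the transplanted tumor received test compound or vehicle. Survival was recorded in each group, and the value is the treated-group measurement divided by that of the vehicle-treated control group.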

[1] = dose: 60.0 mg/kg/injection, schedule: Q01DX005 (ip), vehicle: saline with Tween-80
[2] = dose: 120.0 mg/kg/injection, schedule: Q01DX005 (ip), vehicle: saline with Tween-80
[3] = dose: 240.0 mg/kg/injection, schedule: Q01DX005 (ip), vehicle: saline with Tween-80
[4] = dose: 50.0 mg/kg/injection, schedule: Q01DX005 (ip), vehicle: saline
[5] = dose: 100.0 mg/kg/injection, schedule: Q01DX005 (ip), vehicle: saline
[6] = dose: 100.0 mg/kg/injection, schedule: Q04DX002 (ip), vehicle: saline
[7] = dose: 200.0 mg/kg/injection, schedule: Q04DX002 (ip), vehicle: saline
[8] = dose: 50.0 mg/kg/injection, schedule: Q01DX005 (ip), vehicle: saline with Tween-80
[9] = dose: 100.0 mg/kg/injection, schedule: Q01DX005 (ip), vehicle: saline with Tween-80
[10] = dose: 200.0 mg/kg/injection, schedule: Q01DX005 (ip), vehicle: saline with Tween-80
[11] = dose: 50.0 mg/kg/injection, schedule: Q01DX009 (ip), vehicle: Klucel (hydroxypropylcellulose) (HPC)
[12] = dose: 100.0 mg/kg/injection, schedule: Q01DX009 (ip), vehicle: Klucel (hydroxypropylcellulose) (HPC)
[13] = dose: 200.0 mg/kg/injection, schedule: Q01DX009 (ip), vehicle: Klucel (hydroxypropylcellulose) (HPC)
[14] = dose: 100.0 mg/kg/injection, schedule: Q04DX002 (ip), vehicle: saline with Tween-80
[15] = dose: 25.0 mg/kg/injection, schedule: Q01DX009 (ip), vehicle: saline with Tween-80
[16] = dose: 50.0 mg/kg/injection, schedule: Q01DX009 (ip), vehicle: saline with Tween-80
[17] = dose: 100.0 mg/kg/injection, schedule: Q01DX009 (ip), vehicle: saline with Tween-80
[18] = dose: 200.0 mg/kg/injection, schedule: Q01DX009 (ip), vehicle: saline with Tween-80
[19] = dose: 60.0 mg/kg/injection, schedule: Q01DX005 (ip), vehicle: Klucel (hydroxypropylcellulose) (HPC)
[20] = dose: 120.0 mg/kg/injection, schedule: Q01DX005 (ip), vehicle: Klucel (hydroxypropylcellulose) (HPC)

Measured: T/C

CC(C)(C)OOC(=O)Cc1ccccc1
inactive: [1] 104 % of control | [2] 122 % of control | [3] 122 % of control

CC(C)c1nc(N)nc(N)n1
inactive: dose: 50.0 mg/kg/injection, schedule: Q01DX009 (ip), vehicle: saline 93 % of control | dose: 200.0 mg/kg/injection, schedule: Q01DX009 (ip), vehicle: saline 90 % of control

O=C1OC(=O)C2C1C1C(c3ccccc3)=C(c3ccccc3)C2C2C(=O)OC(=O)C21 (stereo not drawn)
inactive: [1] 103 % of control | [2] 111 % of control | [3] 116 % of control

O=S(=O)(Nc1cc(C(F)(F)F)ccc1Cl)c1ccc(F)cc1
inactive: [1] 104 % of control | [2] 96 % of control | [3] 100 % of control

c1ccc(CON(CCc2ccncc2)CCc2ccncc2)cc1
inactive: [4] 97 % of control | [5] 103 % of control | dose: 200.0 mg/kg/injection, schedule: Q01DX005 (ip), vehicle: saline 101 % of control

COc1cccc(CCC(=O)O)c1OC
inactive: dose: 25.0 mg/kg/injection, schedule: Q01DX009 (ip), vehicle: water 103 % of control | dose: 50.0 mg/kg/injection, schedule: Q01DX009 (ip), vehicle: water 100 % of control | dose: 100.0 mg/kg/injection, schedule: Q01DX009 (ip), vehicle: water 108 % of control | dose: 200.0 mg/kg/injection, schedule: Q01DX009 (ip), vehicle: water 91 % of control | dose: 400.0 mg/kg/injection, schedule: Q01DX009 (ip), vehicle: water 92 % of control

CC(=O)c1nc(-c2ccccc2)oc1-c1ccccc1
inactive: [6] 96 % of control | [7] 95 % of control | dose: 400.0 mg/kg/injection, schedule: Q04DX002 (ip), vehicle: saline 99 % of control

CCCN(CCC)C(C)C(O)c1ccc2cc(Br)c3ccccc3c2c1 (stereo not drawn)
inactive: [8] 98 % of control | [9] 99 % of control | [10] 100 % of control

Fc1ccc(-c2cc(-c3cccs3)cc(-c3ccccc3)n2)cc1
inactive: [11] 121 % of control | [12] 102 % of control | [13] 100 % of control

Cc1nnc(NC(=O)c2cc(=O)c3ccccc3o2)s1
inactive: [14] 99 % of control | dose: 200.0 mg/kg/injection, schedule: Q04DX002 (ip), vehicle: saline with Tween-80 94 % of control | dose: 400.0 mg/kg/injection, schedule: Q04DX002 (ip), vehicle: saline with Tween-80 93 % of control

c1ccc(-c2nc3ccccc3o2)cc1
inactive: [15] 86 % of control | [16] 98 % of control | [17] 101 % of control | [18] 88 % of control

CN(C)CC1CCC1N1c2ccccc2Sc2ccc(Cl)cc21 (stereo not drawn)
inactive: dose: 50.0 mg/kg/injection, schedule: Q04DX003 (ip), vehicle: Klucel (hydroxypropylcellulose) (HPC) 105 % of control | dose: 100.0 mg/kg/injection, schedule: Q04DX003 (ip), vehicle: Klucel (hydroxypropylcellulose) (HPC) 100 % of control | dose: 200.0 mg/kg/injection, schedule: Q04DX003 (ip), vehicle: Klucel (hydroxypropylcellulose) (HPC) 98 % of control

CC1(C)CC2(C)OCCN2C(=S)N1 (stereo not drawn)
inactive: [11] 100 % of control | [12] 90 % of control | [13] 89 % of control

O=C(O)CNC(=O)NC(Cc1ccccc1)C(=O)O (stereo not drawn)
inactive: [8] 105 % of control | [9] 105 % of control | [10] 93 % of control

CCCNc1cc(C)cc2[nH]c(C)nc12
inactive: dose: 25.0 mg/kg/injection, schedule: Q01DX005 (ip), vehicle: Klucel (hydroxypropylcellulose) (HPC) 103 % of control | dose: 50.0 mg/kg/injection, schedule: Q01DX005 (ip), vehicle: Klucel (hydroxypropylcellulose) (HPC) 100 % of control | dose: 100.0 mg/kg/injection, schedule: Q01DX005 (ip), vehicle: Klucel (hydroxypropylcellulose) (HPC) 103 % of control | dose: 200.0 mg/kg/injection, schedule: Q01DX005 (ip), vehicle: Klucel (hydroxypropylcellulose) (HPC) 94 % of control

CC1=C(C(=O)Nc2cc(C)ccc2C)C(c2cccc([N+](=O)[O-])c2)C(C(=O)Nc2cc(C)ccc2C)=C(C)N1
inactive: [19] 88 % of control | [20] 89 % of control

COc1cccc(C2=NC(=C3CCCCC3)C(=O)O2)c1
inactive: [1] 105 % of control | [2] 105 % of control | [3] 100 % of control

CN1CCC2CC(=O)NC1(C)C2(C)C (stereo not drawn)
inactive: dose: 100.0 mg/kg/injection, schedule: Q01DX001 (ip), vehicle: saline 104 % of control | dose: 200.0 mg/kg/injection, schedule: Q01DX001 (ip), vehicle: saline 106 % of control | dose: 400.0 mg/kg/injection, schedule: Q01DX001 (ip), vehicle: saline 106 % of control

CC(C)N=C(Nc1ccccc1)c1ccccc1
inactive: dose: 12.5 mg/kg/injection, schedule: Q01DX009 (ip), vehicle: saline with Tween-80 93 % of control | [15] 89 % of control | dose: 50.0 mg/kg/injection, schedule: Q01DX009 (ip), vehicle: saline + Tween-80 + alcohol 88 % of control

Nc1nc(-c2cc(-c3cccc([N+](=O)[O-])c3Cl)nc(N)n2)cc(-c2cccc([N+](=O)[O-])c2Cl)n1
inactive: [1] 105 % of control | [2] 101 % of control | [3] 100 % of control

O=C(O)CNC(=O)CNc1nc(Cl)nc(NCC(=O)NCC(=O)O)n1
inactive: [19] 97 % of control | [20] 96 % of control | dose: 240.0 mg/kg/injection, schedule: Q01DX005 (ip), vehicle: Klucel (hydroxypropylcellulose) (HPC) 93 % of control

CCOC(=O)NP1(=O)NCc2ccccc2CN1
inactive: [8] 103 % of control | [9] 99 % of control | [10] 90 % of control

OCC1CCCN1 (stereo not drawn)
inactive: [6] 102 % of control | [7] 96 % of control

COc1ccc(C=C(C(=O)CCN(C)C)C(=O)CCN(C)C)cc1
inactive: [4] 105 % of control | [5] 100 % of control

Cc1ccc(S(=O)(=O)N/N=C2/C(=O)N(c3ccc(Cl)cc3C)C(=O)C(=O)C2c2nc3ccccc3s2)cc1 (stereo not drawn)
inactive: [1] 98 % of control | [2] 103 % of control | [3] 104 % of control

CCOC(=O)c1ccc(N=C(C2=C(O)c3ccccc3C2=O)c2ccccc2)cc1
inactive: dose: 25.0 mg/kg/injection, schedule: Q04DX002 (ip), vehicle: saline with Tween-80 92 % of control | dose: 50.0 mg/kg/injection, schedule: Q04DX002 (ip), vehicle: saline with Tween-80 101 % of control | [14] 95 % of control

CN(C)c1ccc(/C=c2\[nH]c(=O)/c(=C\c3ccc(N(C)C)cc3)[nH]c2=O)cc1
inactive: dose: 12.5 mg/kg/injection, schedule: Q01DX001 (ip), vehicle: saline with Tween-80 97 % of control | dose: 25.0 mg/kg/injection, schedule: Q01DX001 (ip), vehicle: saline with Tween-80 99 % of control | dose: 50.0 mg/kg/injection, schedule: Q01DX001 (ip), vehicle: saline with Tween-80 99 % of control | [16] 98 % of control | dose: 100.0 mg/kg/injection, schedule: Q01DX001 (ip), vehicle: saline with Tween-80 99 % of control | [17] 90 % of control | [18] 87 % of control | dose: 400.0 mg/kg/injection, schedule: Q01DX009 (ip), vehicle: saline with Tween-80 90 % of control

COCc1c(C)oc2c(C)c3oc(=O)cc(C)c3cc12
inactive: dose: 100.0 mg/kg/injection, schedule: Q05DX002 (ip), vehicle: saline with Tween-80 101 % of control | dose: 200.0 mg/kg/injection, schedule: Q05DX002 (ip), vehicle: saline with Tween-80 95 % of control | dose: 400.0 mg/kg/injection, schedule: Q05DX002 (ip), vehicle: saline with Tween-80 107 % of control

C[Si](C)(C)N1CCOC1=O
inactive: [1] 109 % of control | [2] 103 % of control | [3] 108 % of control

O=C1C(=C2C=CN(CCN3CCCC3)C=C2)C(=O)c2ccccc21
inactive: [11] 94 % of control | [12] 99 % of control | [13] 99 % of control

Cc1ccc([N+](=O)[O-])cc1I
inactive: [11] 99 % of control | [12] 99 % of control | [13] 100 % of control
